Assays:
SSTR1 = target: T1, SSTR1 (Homo sapiens, UniProt P30872); experiment: SSTR1 I-125 somatostatin competition binding assay for selectivity versus SSTR1 (CHO-K1 membranes); conditions: competition with I-125 somatostatin, membranes from CHO-K1 overexpressing SSTR1; read-out: SSTR1 Binding pIC50 (converted)
T1 construct: purchased Perkin Elmer ES-520-M400UA; host or cells: CHO-K1 membranes
Description: SSTR1 I-125 Somatostatin Competition Binding Assay for Selectivity Versus SSTR1
Membranes from CHO-K1 cells overexpressing SSTR1 are purchased from Perkin Elmer (catalog number ES-520-M400UA). Test compounds are suspended in DMSO and then diluted in assay buffer (25 mM HEPES pH 7.4, 10 mM MgCl2, 1 mM CaCl2), 0.5% BSA) plus 0.4 nM I-125 labeled somatostatin (Perkin Elmer catalog number NEX389). Fifty μL of compound/I-125 somatostatin in assay buffer are added per well to 96-well poly-propylene plate. Then 10 μg of SSTR1 membranes in 50 μL assay buffer are added per well. The plate is incubated for 60 minutes at room temperature. FilterMat A filters (Perkin Elmer catalog number 1450-421) are pre-soaked in 0.5% PEI (Sigma catalog number P3143). The contents of the assay plate are transferred to filters with a TomTech harvester and washed 5 times with 20 mM HEPES, 100 mM NaCl. The filters are dried in a microwave oven then transferred to sample bag containing a scintillator sheet (Perkin Elmer catalog number 1450-441). The scintillator sheets are melted to the filters using a heat block. The filters are then read in a MicroBeta scintillation counter. Binding Ki curves are generated using Activity Base for Screening Data Management and the results are reported as pIC50.

SSTR4 [1] = target: T2, SSTR4 (Homo sapiens, UniProt P31391); experiment: Inhibition of forskolin stimulated cAMP in CHO-K1 cells overexpressing SSTR4; assay type: cell-based; conditions: read-out: SSTR4 Activity pEC50 (converted)
T2 construct: host or cells: CHO-K1
Summary of the method: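 CHO-K1 cells overexpressing SSTR4 treated 30 min at room temperature with compound in Krebs Ringer buffer containing 0.5% BSA, 300 μM IBMX and 350 nM forskolin. Intracellular cAMP measured by HTRF LANCE Ultra (665/615 nm); pEC50 values reported.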

SSTR4 [2] = target: T2, SSTR4; experiment: SSTR4 I-125 somatostatin competition binding assay (CHO-K1 membranes); conditions: competition with I-125 somatostatin, membranes from CHO-K1 overexpressing SSTR4; read-out: SSTR4 Binding pIC50 (converted)
Description: SSTR4 I-125 Somatostatin Competition Binding Assay
Membranes from CHO-K1 cells overexpressing SSTR4 are purchased from Perkin Elmer (catalog number ES-524-M400UA). Test compounds are suspended in DMSO and then diluted in assay buffer (25 mM HEPES pH 7.4, 10 mM MgCl2, 1 mM CaCl2), 0.5% BSA) plus 0.2 nM I-125 labeled somatostatin (Perkin Elmer catalog number NEX389). Fifty μL of compound/I-125 somatostatin in assay buffer are added per well to 96-well poly-propylene plate. Then 1 μg of SSTR4 membranes in 50 μL assay buffer are added per well. The Plate is incubated for 60 minutes at room temperature. FilterMat A filters (Perkin Elmer catalog number 1450-421) are pre-soaked in 0.5% PEI (Sigma catalog number P3143). The contents of the assay plate are transferred to filters with a TomTech harvester and washed 5 times with 20 mM HEPES, 100 mM NaCl. The filters are dried in a microwave oven then transferred to sample bag containing a scintillator sheet (Perkin Elmer catalog number 1450-441). The scintillator sheets are melted to filters using a heat block. The filters are then read in a MicroBeta scintillation counter. Binding Ki curves are generated using Activity Base for Screening Data Management and the results are reported as pIC50.

T2 sequence (P31391 whole entry): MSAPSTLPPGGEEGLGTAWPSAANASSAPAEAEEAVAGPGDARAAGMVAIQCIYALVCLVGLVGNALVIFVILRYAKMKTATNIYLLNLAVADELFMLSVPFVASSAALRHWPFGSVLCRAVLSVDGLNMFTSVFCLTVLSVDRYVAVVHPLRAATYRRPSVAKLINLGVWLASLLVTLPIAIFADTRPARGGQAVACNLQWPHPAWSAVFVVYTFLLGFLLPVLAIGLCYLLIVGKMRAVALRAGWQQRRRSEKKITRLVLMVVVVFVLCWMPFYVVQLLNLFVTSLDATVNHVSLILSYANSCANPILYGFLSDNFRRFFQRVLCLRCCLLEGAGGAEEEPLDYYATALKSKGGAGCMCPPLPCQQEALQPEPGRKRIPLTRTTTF
T1 sequence (P30872 whole entry): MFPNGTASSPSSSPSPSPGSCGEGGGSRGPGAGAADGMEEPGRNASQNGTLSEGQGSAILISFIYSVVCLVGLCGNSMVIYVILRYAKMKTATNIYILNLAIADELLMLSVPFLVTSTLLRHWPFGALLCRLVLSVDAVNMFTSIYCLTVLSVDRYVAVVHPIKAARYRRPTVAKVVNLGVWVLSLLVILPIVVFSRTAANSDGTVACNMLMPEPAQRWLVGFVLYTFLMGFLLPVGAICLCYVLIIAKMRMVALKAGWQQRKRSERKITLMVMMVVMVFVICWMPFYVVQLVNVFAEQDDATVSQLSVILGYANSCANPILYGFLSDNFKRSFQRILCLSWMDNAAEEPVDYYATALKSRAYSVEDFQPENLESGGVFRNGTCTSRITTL

| IC50 (SSTR1) [µM] | EC50 (SSTR4 [1]) [µM] | IC50 (SSTR4 [2]) [µM] | Compound |
| --- | --- | --- | --- |
| 25.1 | 0.0316 | 0.0631 | O=C(CCN1CCC1)N[C@H](c1ccccc1)C(F)F (single isomer, unassigned) [Example 201] |
| 2.51 | 0.00126 | 0.0251 | C[C@H](CN1CCC1)C(=O)N[C@@H](CF)c1ccccc1 (single isomer, unassigned) [Example 205] |
| 5.01 | 0.00158 | 0.0398 | Cc1ccc(C(NC(=O)CCN2CCC2)C(F)(F)F)cc1 (single isomer, unassigned) [Example 207] |
| 15.8 | 0.00316 | 0.0398 | O=C(CCN1CCC1)NC(c1cccc(F)c1)C(F)(F)F (single isomer, unassigned) [Example 208] |
| 20 | 0.00126 | 0.126 | O=C(CCN1CCC1)NC(c1ccccc1F)C(F)(F)F (single isomer, unassigned) [Example 209] |
| 3.98 | 0.01 | 0.0316 | Cc1ccccc1C(NC(=O)CCN1CCC1)C(F)(F)F (single isomer, unassigned) [Example 210] |
| 10 | 0.00631 | 0.0631 | Cc1cccc2c(C(C)(C)NC(=O)CC3CCCN3C)nn(C)c12 (stereo not drawn) [Example 1, N-(2-(1,7-dimethyl-1H-indazol-3-yl)propan-2-yl)-2-(1-methylpyrrolidin-2-yl)acetamide] |
| 3.16 | 0.00631 | 0.0631 | CN1CCCCC1CC(=O)NC(C)(C)c1nn(C)c2ccccc12 (stereo not drawn) [Example 2, N-(2-(1-methyl-1H-indazol-3-yl)propan-2-yl)-2-(1-methylpiperidin-2-yl)acetamide] |
| 5.01 | 0.0251 | 0.2 | CN1CCC[C@@H]1CC(=O)NC(C)(C)c1nn(C)c2ccccc12 [Example 3, (R)-N-(2-(1-methyl-1H-indazol-3-yl)propan-2-yl)-2-(1-methylpyrrolidin-2-yl)acetamide] |
| 10 | 0.0251 | 0.158 | CN1CCC[C@H]1CC(=O)NC(C)(C)c1nn(C)c2ccccc12 [Example 4, (S)-N-(2-(1-methyl-1H-indazol-3-yl)propan-2-yl)-2-(1-methylpyrrolidin-2-yl)acetamide] |
| 5.01 | 0.00398 | 0.0501 | CC(C)(NC(=O)CCN1CCCC1)c1nccc2ccccc12 [Example 5, N-(2-(isoquinolin-1-yl)propan-2-yl)-3-(pyrrolidin-1-yl)propanamide] |
| 2.51 | 0.00158 | 0.0251 | CN1CCCCC1CC(=O)NC(C)(C)c1nccc2ccccc12 (stereo not drawn) [Example 6, N-(2-(isoquinolin-1-yl)propan-2-yl)-2-(1-methylpiperidin-2-yl)acetamide] |
| 5.01 | 0.00398 | 0.0794 | Cc1cccc2c(C(C)(C)NC(=O)CC3CCCCN3C)nccc12 (stereo not drawn) [Example 7, N-(2-(5-methylisoquinolin-1-yl)propan-2-yl)-2-(1-methylpiperidin-2-yl)acetamide] |
| 25.1 | 0.0398 | 0.2 | CN1CCCCC1CC(=O)NC(C)(C)c1cccc(Cl)c1 (stereo not drawn) [Example 11, N-(2-(3-chlorophenyl)propan-2-yl)-2-(1-methylpiperidin-2-yl)acetamide] |
| 3.16 | 0.0126 | 0.1 | CN1CCC[C@@H]1CC(=O)NC(C)(C)c1nccc2ccccc12 [Example 16, (R)-N-(2-(isoquinolin-1-yl)propan-2-yl)-2-(1-methylpyrrolidin-2-yl)acetamide] |
| 5.01 | 0.00398 | 0.1 | Cc1cccc2c(C(C)(C)NC(=O)C[C@H]3CCCN3C)nccc12 [Example 17, (R)-N-(2-(5-methylisoquinolin-1-yl)propan-2-yl)-2-(1-methylpyrrolidin-2-yl)acetamide] |
